According to PubChem BioAssay (NCI):
“And” between values parts separate entries of the source, which are not always exact repeats. Equal values may be shown once.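 All cell lines were grown in 96-well plates and treated with compound for 48 hours. GI50 = concentration required for 50% inhibition of growth. The concentration for full growth arrest is given as TGI.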

Test system: HCT-116 colon
Assay: growth of human tumour cells (NCI), 48 h

For `CN(C)CCNC(=O)c1cccc2ccc(-c3ccc(O)cc3)nc12`, which GI50 is on record?
The GI50 was 879 nM.

What about the TGI of the same compound?
Its TGI is 2.78 µM and 10.7 µM.

With `CSc1nc(=O)n(CCC#N)nc1SC` as the compound, how does the TGI read?
The TGI was 30.1 µM.

How did the GI50 turn out when `COc1cc(Nc2ncccc2C(=O)NCc2cn(Cc3cccc(Oc4ccccc4)c3)nn2)cc(OC)c1` was run?
Its GI50 is 4340 nM.

What about the TGI of the same compound?
Its TGI is > 100 µM.

How did the GI50 turn out when `COc1cc(-c2oc(=O)ccc2C#Cc2ccccn2)cc(OC)c1OC` was run?
The GI50 was 2750 nM.

And the TGI?
The TGI was > 100 µM.

For `COc1cccc(C2CC(C)(O)Oc3cc4c(cc32)OCO4)c1O` (stereo unspecified), which TGI is on record?
The TGI was > 69.4 µM.

With `Cn1cc(C2=C(c3ccc(N)cc3)C(=O)NC2=O)c2ccccc21` as the compound, how does the GI50 read?
Its GI50 is 11300 nM.

What about the TGI of the same compound?
Its TGI is > 25 µM.

For `Cc1cc(Cl)cc(OCCn2cc(F)cn2)c1-c1nc(N)nc2c1CN(C(=O)NCC(C)(F)F)C2`, which GI50 is on record?
The GI50 was 54.8 nM.

And the TGI?
Its TGI is > 100 µM.

Which GI50 does the source give for `COc1ccc(/C=C\[N+](=O)[O-])cc1OC` here?
Its GI50 is 1370 nM.

What about the TGI of the same compound?
Its TGI is 2.85 µM.

For `CCN(CC)CCC(CNc1ccnc2cc(Cl)ccc12)c1ccc(Cl)cc1` (stereo unspecified), which GI50 is on record?
The GI50 was 1010 nM.

What about the TGI of the same compound?
The TGI was 2.32 µM.

How did the GI50 turn out when `COc1cccc(F)c1C(=O)c1cnc(NC2CCN(S(C)(=O)=O)CC2)nc1N` was run?
Its GI50 is 1340 nM.

What about the TGI of the same compound?
Its TGI is > 25 µM.

Which results are given for `COC(=O)c1ccc2c(c1)nc(NC(=O)c1ccccc1)n2CCCc1ccccc1`?
GI50: 3060 nM; TGI: > 100 µM

Which TGI does the source give for `Cc1ccc(S(=O)(=O)Nc2ccccc2C=O)cc1` here?
Its TGI is 28 µM.

For `O=C(Nc1ccc2ncccc2c1)Nc1ccc2ncccc2c1`, which TGI is on record?
The TGI was > 100 µM.

Which TGI does the source give for `CC1(C)S[C@@H]2[C@H](NC(=O)C3(N)CCCCC3)C(=O)N2[C@H]1C(=O)O` here?
The TGI was > 100 µM.

`NC(=O)/C=C/C(=O)c1c(Cl)cccc1Cl` was tested. Which GI50 did it give?
The GI50 was 476 nM.

What does the source list for `CC1(C)N=C(N)N=C(N)N1c1ccc(CCCCc2ccc(Cl)cc2S(=O)(=O)F)c(Cl)c1`?
GI50: 346 nM; TGI: > 38.3 µM

With `O=C(Nc1ccc(Nc2ccncc2)cc1)c1ccc([N+](=O)[O-])cc1` as the compound, how does the GI50 read?
The GI50 was 2930 nM.

What about the TGI of the same compound?
The TGI was 17 µM.

For `C(=NCCN1CCOCC1)=NC1CCCCC1`, which TGI is on record?
Its TGI is > 100 µM.

For `COc1ccccc1/C=N\N/C(N)=N\N=C\c1ccccc1OC`, which GI50 is on record?
Its GI50 is 358 nM.

And the TGI?
The TGI was 5.55 µM.

How did the GI50 turn out when `COc1cccc(CC(C)=C(c2ccc(OCCN(C)C)cc2)c2ccc(OCCN(C)C)cc2)c1` was run?
The GI50 was 644 nM.

What about the TGI of the same compound?
The TGI was 1.5 µM.

Which GI50 does the source give for `COC(=O)COc1ccccc1/C=C1\N=C(c2ccccc2)N(c2cc(C(F)(F)F)ccc2Cl)C1=O` here?
The GI50 was 38200 nM.

And the TGI?
Its TGI is > 100 µM.

With `C=C1C(=O)OC2CC(C)C(C(CC(C)=O)OC(C)=O)=CCC12` (stereo unspecified) as the compound, how does the TGI read?
The TGI was 4.21 µM.

What does the source list for `S=C(Nc1ccc(Cl)cc1)Nc1ccc(-c2nc3ccccc3s2)cc1`?
GI50: 13500 nM; TGI: 26.3 µM

For `COC(=O)C[C@](O)(CCCC(C)(C)O)C(=O)O[C@@H]1C(OC)=C[C@]23CCCN2CCc2cc4c(cc2[C@H]13)OCO4`, which GI50 is on record?
Its GI50 is 134 nM and 15.3 nM.

What does the source list for `CC(=O)Nc1ccc(S(=O)(=O)N2C(=O)CCC2C(=O)Nc2ccc(Br)cc2)cc1` (stereo unspecified)?
GI50: 1740 nM; TGI: > 100 µM

For `CO/N=C(/C)c1cccc(Nc2cc(-n3nnc4ccccc43)nc3ccccc23)c1`, which GI50 is on record?
Its GI50 is 27000 nM.

What about the TGI of the same compound?
Its TGI is > 100 µM.

For `C[N+](C)(C)CC1CCCc2ccccc2C1=O` (stereo unspecified), which GI50 is on record?
The GI50 was 4270 nM.

What about the TGI of the same compound?
Its TGI is 3.27 µM and 8.46 µM.

`COc1cc(C(=O)N2CCN(C=O)C2=S)cc(OC)c1OC` was tested. Which GI50 did it give?
The GI50 was 35600 nM.

What about the TGI of the same compound?
The TGI was > 100 µM.

Test system: HCT-15 colon
Assay: growth of human tumour cells (NCI), 48 h

For `CN(C)CCNC(=O)c1cccc2ccc(-c3ccc(O)cc3)nc12`, which TGI is on record?
Its TGI is 14.4 µM.

Which TGI does the source give for `CSc1nc(=O)n(CCC#N)nc1SC` here?
Its TGI is > 100 µM.

With `COc1cc(Nc2ncccc2C(=O)NCc2cn(Cc3cccc(Oc4ccccc4)c3)nn2)cc(OC)c1` as the compound, how does the GI50 read?
The GI50 was 3890 nM.

And the TGI?
Its TGI is > 100 µM.

What does the source list for `COc1cc(-c2oc(=O)ccc2C#Cc2ccccn2)cc(OC)c1OC`?
GI50: 1540 nM; TGI: > 100 µM

`COc1cccc(C2CC(C)(O)Oc3cc4c(cc32)OCO4)c1O` (stereo unspecified) was tested. Which TGI did it give?
The TGI was > 72.5 µM.

Which GI50 does the source give for `Cn1cc(C2=C(c3ccc(N)cc3)C(=O)NC2=O)c2ccccc21` here?
The GI50 was 11500 nM.

What about the TGI of the same compound?
The TGI was > 25 µM.

`Cc1cc(Cl)cc(OCCn2cc(F)cn2)c1-c1nc(N)nc2c1CN(C(=O)NCC(C)(F)F)C2` was tested. Which GI50 did it give?
The GI50 was 386 nM.

And the TGI?
Its TGI is > 100 µM.

What does the source list for `COc1ccc(/C=C\[N+](=O)[O-])cc1OC`?
GI50: 2190 nM; TGI: 6.45 µM

What does the source list for `CCN(CC)CCC(CNc1ccnc2cc(Cl)ccc12)c1ccc(Cl)cc1` (stereo unspecified)?
GI50: 1050 nM; TGI: 4.89 µM

For `COc1cccc(F)c1C(=O)c1cnc(NC2CCN(S(C)(=O)=O)CC2)nc1N`, which GI50 is on record?
The GI50 was 3630 nM.

And the TGI?
The TGI was > 25 µM.

Which GI50 does the source give for `COC(=O)c1ccc2c(c1)nc(NC(=O)c1ccccc1)n2CCCc1ccccc1` here?
The GI50 was 1890 nM.

What about the TGI of the same compound?
Its TGI is > 100 µM.

With `Cc1ccc(S(=O)(=O)Nc2ccccc2C=O)cc1` as the compound, how does the TGI read?
The TGI was 31.6 µM.

With `O=C(Nc1ccc2ncccc2c1)Nc1ccc2ncccc2c1` as the compound, how does the TGI read?
Its TGI is > 100 µM.

Which TGI does the source give for `CC1(C)S[C@@H]2[C@H](NC(=O)C3(N)CCCCC3)C(=O)N2[C@H]1C(=O)O` here?
Its TGI is > 100 µM.

With `NC(=O)/C=C/C(=O)c1c(Cl)cccc1Cl` as the compound, how does the TGI read?
Its TGI is 2.3 µM.

For `CC1(C)N=C(N)N=C(N)N1c1ccc(CCCCc2ccc(Cl)cc2S(=O)(=O)F)c(Cl)c1`, which GI50 is on record?
The GI50 was 464 nM.

And the TGI?
Its TGI is > 51.3 µM.

Which results are given for `O=C(Nc1ccc(Nc2ccncc2)cc1)c1ccc([N+](=O)[O-])cc1`?
GI50: 4950 nM; TGI: > 40.6 µM

Which TGI does the source give for `C(=NCCN1CCOCC1)=NC1CCCCC1` here?
Its TGI is > 100 µM.

With `COc1ccccc1/C=N\N/C(N)=N\N=C\c1ccccc1OC` as the compound, how does the GI50 read?
The GI50 was 465 nM.

What about the TGI of the same compound?
Its TGI is > 37.5 µM.

With `COc1cccc(CC(C)=C(c2ccc(OCCN(C)C)cc2)c2ccc(OCCN(C)C)cc2)c1` as the compound, how does the GI50 read?
The GI50 was 974 nM.

And the TGI?
Its TGI is 3.6 µM.

For `COC(=O)COc1ccccc1/C=C1\N=C(c2ccccc2)N(c2cc(C(F)(F)F)ccc2Cl)C1=O`, which GI50 is on record?
Its GI50 is > 100000 nM.

And the TGI?
The TGI was > 100 µM.

For `C=C1C(=O)OC2CC(C)C(C(CC(C)=O)OC(C)=O)=CCC12` (stereo unspecified), which TGI is on record?
Its TGI is 7.96 µM.

How did the GI50 turn out when `S=C(Nc1ccc(Cl)cc1)Nc1ccc(-c2nc3ccccc3s2)cc1` was run?
The GI50 was 23500 nM.

What about the TGI of the same compound?
The TGI was > 100 µM.

For `COC(=O)C[C@](O)(CCCC(C)(C)O)C(=O)O[C@@H]1C(OC)=C[C@]23CCCN2CCc2cc4c(cc2[C@H]13)OCO4`, which GI50 is on record?
Its GI50 is 94.4 nM.

And the TGI?
The TGI was 1.85 µM and 4.71 µM.

Which GI50 does the source give for `CC(=O)Nc1ccc(S(=O)(=O)N2C(=O)CCC2C(=O)Nc2ccc(Br)cc2)cc1` (stereo unspecified) here?
The GI50 was 1720 nM.

What about the TGI of the same compound?
The TGI was 13 µM.

Which GI50 does the source give for `CO/N=C(/C)c1cccc(Nc2cc(-n3nnc4ccccc43)nc3ccccc23)c1` here?
Its GI50 is 31800 nM.

What about the TGI of the same compound?
The TGI was > 100 µM.

Which GI50 does the source give for `C[N+](C)(C)CC1CCCc2ccccc2C1=O` (stereo unspecified) here?
Its GI50 is 2750 nM.

What about the TGI of the same compound?
The TGI was 8.43 µM.

Which results are given for `COc1cc(C(=O)N2CCN(C=O)C2=S)cc(OC)c1OC`?
GI50: 25600 nM; TGI: 73.6 µM

Test system: CAKI-1 renal
Assay: growth of human tumour cells (NCI), 48 h

How did the TGI turn out when `CN(C)CCNC(=O)c1cccc2ccc(-c3ccc(O)cc3)nc12` was run?
Its TGI is 6.53 µM and 11.3 µM.

For `CSc1nc(=O)n(CCC#N)nc1SC`, which TGI is on record?
The TGI was > 100 µM.

Which GI50 does the source give for `COc1cc(Nc2ncccc2C(=O)NCc2cn(Cc3cccc(Oc4ccccc4)c3)nn2)cc(OC)c1` here?
The GI50 was 6300 nM.

What about the TGI of the same compound?
Its TGI is > 100 µM.

For `COc1cc(-c2oc(=O)ccc2C#Cc2ccccn2)cc(OC)c1OC`, which GI50 is on record?
The GI50 was 563 nM.

And the TGI?
Its TGI is 3.73 µM.

For `COc1cccc(C2CC(C)(O)Oc3cc4c(cc32)OCO4)c1O` (stereo unspecified), which TGI is on record?
The TGI was > 100 µM.

How did the GI50 turn out when `Cn1cc(C2=C(c3ccc(N)cc3)C(=O)NC2=O)c2ccccc21` was run?
Its GI50 is > 18900 nM.

And the TGI?
The TGI was > 25 µM.

Which GI50 does the source give for `Cc1cc(Cl)cc(OCCn2cc(F)cn2)c1-c1nc(N)nc2c1CN(C(=O)NCC(C)(F)F)C2` here?
The GI50 was 755 nM.

And the TGI?
Its TGI is > 100 µM.

What does the source list for `COc1ccc(/C=C\[N+](=O)[O-])cc1OC`?
GI50: 1800 nM; TGI: 4.84 µM

How did the GI50 turn out when `CCN(CC)CCC(CNc1ccnc2cc(Cl)ccc12)c1ccc(Cl)cc1` (stereo unspecified) was run?
Its GI50 is 496 nM.

And the TGI?
The TGI was 2.36 µM.

How did the GI50 turn out when `COc1cccc(F)c1C(=O)c1cnc(NC2CCN(S(C)(=O)=O)CC2)nc1N` was run?
The GI50 was 3400 nM.

What about the TGI of the same compound?
The TGI was > 22.9 µM.

Which GI50 does the source give for `COC(=O)c1ccc2c(c1)nc(NC(=O)c1ccccc1)n2CCCc1ccccc1` here?
The GI50 was 3570 nM.

What about the TGI of the same compound?
Its TGI is > 100 µM.

Which TGI does the source give for `Cc1ccc(S(=O)(=O)Nc2ccccc2C=O)cc1` here?
Its TGI is > 100 µM.

Which TGI does the source give for `O=C(Nc1ccc2ncccc2c1)Nc1ccc2ncccc2c1` here?
The TGI was > 100 µM.

Which TGI does the source give for `CC1(C)S[C@@H]2[C@H](NC(=O)C3(N)CCCCC3)C(=O)N2[C@H]1C(=O)O` here?
Its TGI is > 100 µM.
